Measured values taken from publication PMC3551771, “Pharmacological modulation of histone demethylase activity by a small molecule isolated from subcritical water extracts of Sasa senanensis leaves prolongs the lifespan of Drosophila melanogaster” (BMC Complementary and Alternative Medicine, 2012).

Columns and labels:
Experiment in all cases: fluorogenic JMJD demethylase assay kit, biotinylated histone H3 peptide substrate
Format in all cases: biochemical
[1] = molecular target: T1, JMJD2A (Homo sapiens, UniProt O75164)
T1 construct: gene KDM4A
T1 sequence (O75164 2-1064): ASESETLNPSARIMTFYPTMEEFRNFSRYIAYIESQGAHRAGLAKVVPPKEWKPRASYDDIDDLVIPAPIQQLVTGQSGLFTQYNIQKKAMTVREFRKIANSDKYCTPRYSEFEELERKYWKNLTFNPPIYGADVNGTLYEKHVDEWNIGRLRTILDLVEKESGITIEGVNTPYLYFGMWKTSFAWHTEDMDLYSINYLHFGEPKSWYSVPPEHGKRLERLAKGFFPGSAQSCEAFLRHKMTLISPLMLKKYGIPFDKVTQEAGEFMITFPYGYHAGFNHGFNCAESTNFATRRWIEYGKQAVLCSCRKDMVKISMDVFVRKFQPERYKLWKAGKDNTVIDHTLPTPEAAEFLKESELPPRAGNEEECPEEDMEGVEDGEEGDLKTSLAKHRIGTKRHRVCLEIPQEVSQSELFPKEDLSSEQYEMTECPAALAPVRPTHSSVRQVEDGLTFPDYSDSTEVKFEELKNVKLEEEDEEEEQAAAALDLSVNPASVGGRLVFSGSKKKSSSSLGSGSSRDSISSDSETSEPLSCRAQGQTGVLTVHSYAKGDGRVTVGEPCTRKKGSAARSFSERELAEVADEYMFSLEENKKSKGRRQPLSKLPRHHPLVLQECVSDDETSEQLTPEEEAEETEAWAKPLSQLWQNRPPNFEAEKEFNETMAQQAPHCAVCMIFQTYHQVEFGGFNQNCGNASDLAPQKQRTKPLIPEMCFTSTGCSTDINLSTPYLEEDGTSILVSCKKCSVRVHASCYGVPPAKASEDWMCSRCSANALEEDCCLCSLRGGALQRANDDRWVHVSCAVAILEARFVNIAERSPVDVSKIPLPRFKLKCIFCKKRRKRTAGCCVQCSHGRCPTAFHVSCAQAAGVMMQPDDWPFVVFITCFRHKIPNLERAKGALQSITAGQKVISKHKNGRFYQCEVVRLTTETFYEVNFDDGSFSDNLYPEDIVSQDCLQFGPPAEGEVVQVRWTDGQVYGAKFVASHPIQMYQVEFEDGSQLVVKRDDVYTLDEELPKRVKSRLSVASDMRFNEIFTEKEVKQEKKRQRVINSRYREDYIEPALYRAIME

[2] = molecular target: T2, JMJD2B (Homo sapiens, UniProt O94953)
T2 construct: gene KDM4B
T2 sequence (O94953 1-1096): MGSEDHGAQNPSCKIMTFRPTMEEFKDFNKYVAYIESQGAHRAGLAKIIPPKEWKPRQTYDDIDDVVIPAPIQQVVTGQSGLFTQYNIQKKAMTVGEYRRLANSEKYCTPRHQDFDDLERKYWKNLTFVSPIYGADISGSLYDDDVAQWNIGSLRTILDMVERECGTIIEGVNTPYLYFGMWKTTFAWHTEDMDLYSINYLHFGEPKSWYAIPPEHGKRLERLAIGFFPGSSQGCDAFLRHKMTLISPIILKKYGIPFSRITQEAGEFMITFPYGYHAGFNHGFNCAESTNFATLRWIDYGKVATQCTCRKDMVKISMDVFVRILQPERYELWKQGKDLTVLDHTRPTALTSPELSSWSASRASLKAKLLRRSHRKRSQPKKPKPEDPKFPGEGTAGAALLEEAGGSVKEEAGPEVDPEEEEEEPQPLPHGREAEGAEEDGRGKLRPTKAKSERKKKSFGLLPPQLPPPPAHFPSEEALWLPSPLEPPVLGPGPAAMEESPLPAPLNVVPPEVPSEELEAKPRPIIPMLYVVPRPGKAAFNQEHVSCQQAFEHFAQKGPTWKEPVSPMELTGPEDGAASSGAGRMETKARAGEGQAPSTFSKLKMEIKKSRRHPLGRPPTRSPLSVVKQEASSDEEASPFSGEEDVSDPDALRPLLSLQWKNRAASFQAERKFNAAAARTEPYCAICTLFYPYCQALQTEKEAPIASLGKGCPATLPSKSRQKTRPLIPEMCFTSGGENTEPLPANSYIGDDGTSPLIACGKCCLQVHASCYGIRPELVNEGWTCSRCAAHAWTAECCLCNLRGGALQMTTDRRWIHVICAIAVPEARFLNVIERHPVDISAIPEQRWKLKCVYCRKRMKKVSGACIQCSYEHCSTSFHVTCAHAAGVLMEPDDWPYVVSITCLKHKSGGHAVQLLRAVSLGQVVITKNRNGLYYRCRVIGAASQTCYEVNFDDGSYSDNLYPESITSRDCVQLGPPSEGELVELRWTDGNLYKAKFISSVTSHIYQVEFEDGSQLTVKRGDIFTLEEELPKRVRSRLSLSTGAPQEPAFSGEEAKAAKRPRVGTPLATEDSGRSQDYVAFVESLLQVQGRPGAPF
Source text: IC50 values are mean ± SEM

[3] = molecular target: T3, JMJD2C (Homo sapiens, UniProt Q9H3R0)
T3 construct: gene KDM4C
T3 sequence (Q9H3R0 1-1056): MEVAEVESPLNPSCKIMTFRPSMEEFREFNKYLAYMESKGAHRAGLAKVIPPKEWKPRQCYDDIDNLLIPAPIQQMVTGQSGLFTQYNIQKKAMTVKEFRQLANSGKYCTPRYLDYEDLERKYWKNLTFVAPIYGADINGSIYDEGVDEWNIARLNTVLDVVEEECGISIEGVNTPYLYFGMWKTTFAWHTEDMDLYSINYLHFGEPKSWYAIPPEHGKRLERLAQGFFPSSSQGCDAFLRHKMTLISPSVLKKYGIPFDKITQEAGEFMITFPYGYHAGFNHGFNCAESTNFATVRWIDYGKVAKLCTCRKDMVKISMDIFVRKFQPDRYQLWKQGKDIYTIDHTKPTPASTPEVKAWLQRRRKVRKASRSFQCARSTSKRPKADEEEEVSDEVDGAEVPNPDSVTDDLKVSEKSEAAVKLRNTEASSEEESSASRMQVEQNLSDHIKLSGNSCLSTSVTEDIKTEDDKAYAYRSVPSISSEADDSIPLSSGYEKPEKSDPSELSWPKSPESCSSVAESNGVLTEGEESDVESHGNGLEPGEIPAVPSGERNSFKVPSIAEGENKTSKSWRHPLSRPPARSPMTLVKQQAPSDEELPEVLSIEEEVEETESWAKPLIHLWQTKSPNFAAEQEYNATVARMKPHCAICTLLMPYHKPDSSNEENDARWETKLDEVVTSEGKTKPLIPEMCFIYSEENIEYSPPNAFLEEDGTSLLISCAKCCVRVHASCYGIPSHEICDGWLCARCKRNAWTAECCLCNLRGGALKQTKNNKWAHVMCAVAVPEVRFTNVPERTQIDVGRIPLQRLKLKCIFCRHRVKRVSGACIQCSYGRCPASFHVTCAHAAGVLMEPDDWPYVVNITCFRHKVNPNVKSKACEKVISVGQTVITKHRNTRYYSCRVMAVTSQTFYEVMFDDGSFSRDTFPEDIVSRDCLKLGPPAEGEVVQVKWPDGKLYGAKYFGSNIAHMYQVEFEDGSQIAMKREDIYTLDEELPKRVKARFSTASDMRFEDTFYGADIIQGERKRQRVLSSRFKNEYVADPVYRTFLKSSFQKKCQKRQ

IC50 [1]: 11.6 ± 1.5 µM
IC50 [2]: 38.6 ± 10 µM
IC50 [3]: 33.7 ± 7.8 µM
SMILES: O=Cc1ccc(O)c(O)c1 [PA, 3,4-dihydroxybenzaldehyde]
